Measurements as given in paper PMC11232109, “Synthesis, anticancer evaluation of novel hybrid pyrazole-based chalcones, molecular docking, DNA fragmentation, and gene expression: in vitro studies” (RSC Advances, 2024).
“And” between values parts separate entries of the source, which are not always exact repeats. Equal values may be shown once. Read-outs that look alike come from different tables or passages of the source. Marks after values point to notes of the source that are not given here.

Columns and labels:
[1] = MTT assay, normal cell line BJ1; format: cell-based; conditions: human, at 100 μg ml^−1, 48 hours, read-out: (%) Mortality of BJ1
Procedure: (§1) The percentage of the cell viability treated with the newly synthesized compounds was evaluated using MTT assay (3-(4,5-dimethylthiazol-2-yl)-2,5-diphenyl tetrazolium bromide). All the subsequent steps were done in a sterile Laminar flow class II biosafety cabinet (Baker, SG406INT, Sanford, ME, USA). DMEM was used as a suspension medium for breast cancer (MCF7), prostate cancer (PC3), and pancreatic cancer (PACA2), while normal cell line (BJ1) was suspended in DMEM-F12 medium, a 1% antibiotic-antimycotic mixture (10 000 U ml^−1 potassium penicillin, 10 000 μg ml^−1 streptomycin sulfate, and 25 μg ml^−1 amphotericin B), and 1% L-glutamine at 37 °C under 5% CO2.
(§2) Cells were cultured for 10 days and then seeded at a concentration of 10 × 10^4 cells per well in fresh complete growth medium in 96-well microtiter plastic plates at 37 °C for 24 hours under 5% CO2 using a water-jacketed carbon dioxide incubator (Sheldon, TC2323). Media were aspirated, serum-free fresh medium was added, and cells were incubated either alone (negative control) or with different concentrations of the synthesized chalcone derivatives to a final concentration of (100–50–25–12.5–6.25–3.125–0.78 and 1.56 μg ml^−1). After incubation for 48 hours, the medium was aspirated and 40 μl of MTT salt ([…]) was added to each well and incubated for another four hours at 37 °C under 5% CO2. To stop the reaction and dissolve the formed crystals, 200 μl of 10% sodium dodecyl sulfate (SDS) in deionized water was added to each well and incubated overnight at 37 °C.
(§3) The absorbance was then measured at 595 nm and a reference wavelength of 620 nm using a microplate multi-well reader (Bio-Rad Laboratories Inc., model 3350). Statistical significance was tested between the samples and the negative control (cells with vehicle) using an independent t-test using the SPSS 11 program. DMSO was the vehicle used for the dissolution of the synthesized chalcones, and its final concentration on the cells was less than 0.2%. The percentage of change in viability was calculated according to the formula: ((reading of extract/reading of negative control) − 1) × 100. A Probit analysis was carried out for the determination of IC50 using the SPSS 11 program.

MCF7 cell lines = test: DNA fragmentation assay, MCF7; format: cell-based, human; conditions: for DNA fragmentation, Inhibition (%): MCF7; for DNA fragmentation (%) M ± SEM: MCF7, 24 hours of exposure, −ve control 8.6 ± 0.36; for DNA fragmentation, Change: MCF7, change versus −ve control
Procedure: The DNA fragmentation assay in breast and pancreatic cancer cell lines was performed in accordance with the method of Helmy et al., 2022 (ref. [15]) with some modifications. Briefly, after 24 hours of exposure of breast and pancreatic cancer cell lines to the tested chalcone compounds in different Petri dishes (60 × 15 mm, Greiner), the cells were trypsinized, suspended, homogenized in 1 ml of medium, and centrifuged (10 min at 800 rpm). Low-molecular-weight genomic DNA was extracted as described in Yawata et al., 1998.[52] Approximately 1 × 10^6 cells were plated and treated with the tested substances in various treatments. All the cells (including floating cells) were harvested by trypsinization and washed with Dulbecco's phosphate-buffered saline. Cells were lysed with the lysis buffer containing 10 mM Tris (pH 7.4), 150 mM NaCl, 5 mM EDTA, and 0.5% Triton X-100 for 30 minutes on ice. Lysates were vortexed and cleared by centrifugation at 10 000 g for 20 min. Fragmented DNA in the supernatant was extracted with an equal volume of a neutral phenol/chloroform/isoamyl alcohol mixture (25 : 24 : 1) and analyzed electrophoretically on 2% agarose gels containing 0.1 μg ml^−1 ethidium bromide.

[2] = test system: PACA2 (pancreatic carcinoma); test: MTT assay, PACA2; format: cell-based; conditions: for cytotoxicity at 100 µg/mL / IC50: Homo sapiens; for IC50: 48 hours
Procedure: as §1, §2, §3

PC3 (prostatic cancer) = test: MTT assay, PC3; format: cell-based
Procedure: as §1, §2, §3

[3] = test system: MCF7 (human breast adenocarcinoma); test: MTT assay, MCF7; format: cell-based; conditions: for cytotoxicity at 100 µg/mL / IC50: Homo sapiens; for IC50: 48 hours
Procedure: as §1, §2, §3

Cc1nn(-c2ccccc2)c(C=CC(=O)c2c(-c3cccs3)nn(-c3ccc([N+](=O)[O-])cc3)c2C)c1Cl [Compound 7d, 3-(4-Chloro-3-methyl-1-phenyl-1H-pyrazol-5-yl)-1-(5-methyl-1-(4-nitrophenyl)-3-(thiophen-2-yl)-1H-pyrazol-4-yl)prop-2-en-1-one]
cytotoxicity at 48 h, 100 μg ml^−1 ([1]; BJ1 normal skin fibroblasts): 12.3 ± 0.23% | DNA fragmentation, Inhibition (%) (MCF7 cell lines): 20.48% | DNA fragmentation (%) M ± SEM (MCF7 cell lines): 21.8 ± 0.94% and 21.8 ± 0.94^a % | DNA fragmentation, Change (MCF7 cell lines): 13.2 | cytotoxicity at 100 µg/mL ([2]; PaCa-2, 48 h, at 100 μg ml^−1, 48 hours, MTT, read-out: (%) Mortality of PACA2): 70 to 80% | IC50 ([2]; PaCa-2, MTT): 51.9 ± 0.29 µM | cytotoxicity ([2]; at 100 μg ml^−1, 48 hours, MTT, read-out: (%) Mortality of PACA2): 80.3 ± 19% | cytotoxicity at 100 µg/mL (PC3 (prostatic cancer); Homo sapiens, 48 h, at 100 μg ml^−1, 48 hours, MTT, read-out: (%) Mortality of PC3): 70 to 80% | IC50 (PC3 (prostatic cancer); Homo sapiens, MTT, 48 hours): 66.9 ± 0.98 µM | cytotoxicity (PC3 (prostatic cancer); at 100 μg ml^−1, 48 hours, MTT, read-out: (%) Mortality of PC3): 70.6 ± 0.97% | cytotoxicity at 100 µg/mL ([3]; MCF7, 48 h, at 100 μg ml^−1, 48 hours, MTT, read-out: (%) Mortality of MCF7): 70 to 80% | IC50 ([3]; MCF7, MTT): 42.6 ± 0.71 µM | cytotoxicity ([3]; at 100 μg ml^−1, 48 hours, MTT, read-out: (%) Mortality of MCF7): 71.2 ± 0.14%

Cc1c(C(=O)C=Cc2nn(-c3ccccc3)cc2-c2ccc([N+](=O)[O-])cc2)c(-c2cccs2)nn1-c1ccc([N+](=O)[O-])cc1 [Compound 9e, 1-(5-Methyl-1-(4-nitrophenyl)-3-(thiophen-2-yl)-1H-pyrazol-4-yl)-3-(4-(4-nitrophenyl)-1-phenyl-1H-pyrazol-3-yl)prop-2-en-1-one]
cytotoxicity at 48 h, 100 μg ml^−1 [1]: 5.6 ± 0.55% | cytotoxicity at 100 µg/mL ([2]; PaCa-2, 48 h, read-out: (%) Mortality of PACA2): 100% | IC50 ([2]; PaCa-2, MTT): 27.6 ± 0.33 µM | cytotoxicity at 100 µg/mL (PC3 (prostatic cancer); Homo sapiens, 48 h, read-out: (%) Mortality of PC3): 5.3 ± 0.94% | cytotoxicity at 100 µg/mL ([3]; MCF7, 48 h, read-out: (%) Mortality of MCF7): 14.2 ± 0.37% | IC50 ([3]; MCF7, MTT): 59.3 ± 0.85 µM

COc1cccc2c1C(=O)c1c(O)c3c(c(O)c1C2=O)C[C@@](O)(C(=O)CO)C[C@@H]3O[C@H]1C[C@H](N)[C@H](O)[C@H](C)O1 [Doxorubicin, reference compound]
cytotoxicity at 48 h, 100 μg ml^−1 ([1]; BJ1 normal skin fibroblasts): 100% | DNA fragmentation, Inhibition (%) (MCF7 cell lines): 23.67% | DNA fragmentation (%) M ± SEM (MCF7 cell lines): 25.2 ± 0.65% | DNA fragmentation (%) M ± SEM (MCF7 cell lines; listed as MCF7 +ve control): 25.2 ± 0.65^a % | DNA fragmentation, Change (MCF7 cell lines): 16.6 | cytotoxicity at 100 µg/mL ([2]; PaCa-2, at 100 μg ml^−1, 48 hours, MTT, read-out: (%) Mortality of PACA2): 100% | cytotoxicity at 100 µg/mL (PC3 (prostatic cancer); Homo sapiens, at 100 μg ml^−1, 48 hours, MTT, read-out: (%) Mortality of PC3): 100% | IC50 ([3]; MCF7, MTT): 48 ± 0.74 µM | cytotoxicity at 100 µg/mL ([3]; MCF7, at 100 μg ml^−1, 48 hours, MTT, read-out: (%) Mortality of MCF7): 100%
